Laboratory results reported in ChEMBL document CHEMBL3046542, “Synthesis of some new 3,4-dihydro-2H-1,3-benzoxazines under microwave irradiation in solvent-free conditions and their biological activity” (Med Chem Res, 2011).

Experiments:
[1] = system: Rattus norvegicus; test: Anti-inflammatory activity in Rattus norvegicus Wistar (rat) assessed as inhibition of carrageenan-induced paw edema at dose molecularly equivalent to 20 mg/kg of ibuprofen administered as po after 3 hr relative to ibuprofen; format: functional
[2] = system: Mus musculus; test: Analgesic activity in Mus musculus Swiss albino (mouse) assessed as protection against acetic acid-induced writhing effect at 20 mg/kg, po after 3 hr relative to control; format: functional
[3] = system: Rattus norvegicus; test: Gastrointestinal toxicity in Rattus norvegicus Wistar (rat) assessed as ulcer index at dose molecularly equivalent to 60 mg/kg of ibuprofen administered as po; format: organism-based; set-up: dose 60 mg/kg, route oral; settings: in vivo
[4] = system: Rattus norvegicus; test: Anti-inflammatory activity in Rattus norvegicus Wistar (rat) assessed as inhibition of carrageenan-induced paw edema at 20 mg/kg, po after 3 hr relative to control; format: functional
[5] = system: Rattus norvegicus; test: Gastrointestinal toxicity in Rattus norvegicus Wistar (rat) assessed as ulcer index at 60 mg/kg, po; format: organism-based; set-up: dose 60 mg/kg, route oral; settings: in vivo

| SMILES | inhibition in vivo [1] [%] | Activity [2] [%] | UI [3] | inhibition in vivo at 20 mg/kg [4] [%] | UI [5] |
| --- | --- | --- | --- | --- | --- |
| COc1cc(/C=C/C(=O)c2ccc3c(c2)CN(c2ccc(C)cc2)CO3)cc(OC)c1OC | 56.5 | – | – | – | – |
| Cc1ccc(N2COc3ccc(C(=O)/C=C/c4ccc(Cl)cc4)cc3C2)cc1 | 63.4 | – | – | – | – |
| Cc1ccc(N2COc3ccc(C(=O)/C=C/c4ccc(Cl)cc4Cl)cc3C2)cc1 | 71.9 | 55.47 | 0.17 | – | – |
| COc1ccc(N2COc3ccc(C(=O)/C=C/c4ccccc4Cl)cc3C2)cc1 | 63.4 | – | – | – | – |
| COc1ccc(/C=C/C(=O)c2ccc3c(c2)CN(c2ccc(OC)cc2)CO3)cc1 | 61.2 | – | – | – | – |
| COc1ccc(N2COc3ccc(C(=O)/C=C/c4ccccc4O)cc3C2)cc1 | 55.7 | – | – | – | – |
| COc1ccc(N2COc3ccc(C(=O)/C=C/c4cc(OC)c(OC)c(OC)c4)cc3C2)cc1 | 62.2 | – | – | – | – |
| COc1ccc(N2COc3ccc(C(=O)/C=C/c4ccc(Cl)cc4)cc3C2)cc1 | 67.4 | 52.22 | 0.25 | – | – |
| COc1ccc(N2COc3ccc(C(=O)/C=C/c4ccc(Cl)cc4Cl)cc3C2)cc1 | 74.9 | 57.38 | 0.08 | – | – |
| Cc1ccc(N2COc3ccc(C(=O)/C=C/c4ccccc4Cl)cc3C2)cc1 | 60.4 | – | – | – | – |
| COc1ccc(/C=C/C(=O)c2ccc3c(c2)CN(c2ccc(C)cc2)CO3)cc1 | 70.4 | 54.27 | 0.17 | – | – |
| Cc1ccc(N2COc3ccc(C(=O)/C=C/c4ccccc4O)cc3C2)cc1 | 51 | – | – | – | – |
| CC(C)Cc1ccc(C(C)C(=O)O)cc1 (stereo not drawn) [IBUPROFEN] | – | 63.06 | – | 82.3 | 1 |
